The results in this text go back to patent US20090324718A1, “IMATINIB COMPOSITIONS” (priority 2006, published 2009).

Type in all cases: physicochemical
Data set [1] in a line: Hygroscopicity of imatinib depending on the physical structure of the active drug.
Data set [2] is described as follows: Physical stability on storage: appearance score (color and texture). On the set-up: key to Appearance, scale: 1 = good 5 = bad / Appearance / Appearance t = 7 days / Appearance t = 14 days: 1=very good (no change in color and texture of the sample); 5=not good (changed both in color (became yellow) and in texture (absorbed water and reduced shine of sample)). Conditions: for Appearance, scale: 1 = good 5 = bad: 55° C./75% RH Day 0; for Appearance: 55° C./75% RH Day 5; for Appearance t = 7 days / Appearance t = 14 days / Appearance t = 28 days: 40° C./75% RH. The text has this: As used herein the term “physical stability” of a composition means the appearance of the composition is substantially unchanged and/or the hygroscopicity is low.
The term “appearance” as used herein describes the color and texture of a composition. The color of a composition according to a scored scale, as assessed by one of ordinary skill in the art in view of the following guidelines. A discoloration score of 1 indicates material without discoloration, whereas a discoloration score of 5 indicates severe discoloration (almost complete discoloration) relative to the color of the material as obtained after preparation and prior to storage. In the present invention the composition preferably has a white color immediately after processing and generally remains white if stable. Discoloration to a yellow color is typical when the composition is unstable. Similarly, a texture score of 1 indicates material having an uniform and smooth texture, whereas a texture score of 5 indicates a nonuniform and rough texture. The texture may be determined by visual inspection by one of ordinary skill in the art. For both discoloration and texture, scores 2 to 4 represent 5 “some or slight (change)” for a score of 2, “medium (change)” for a score of 3, and “substantial (change)” for a score of 4.
(§1) The table below summarizes all test results (Assay, IDD, weight gain, and appearance). The appearance data is scored from 1 to 5 (1=very good (no change in color and texture of the sample), see an example of “Score=1” in Table 2, example 10, Day 0, 5=not good (changed both in color (became yellow) and in texture (absorbed water and reduced shine of sample)), see an example of “Score=4-5” in Table 2, example 9, time Day 5), and is supported by pictures presented in Table 2.

Data set [3] in a line: Chemical stability on storage: HPLC Assay and Impurities and Degradation Determination (IDD). Conditions: for Chemical: Assay: HPLC; for Chemical: main deg: HPLC IDD. The method, then: The term “chemical stability” as used herein relates to the presence or absence of degradation products of the active pharmaceutical ingredient (API) as measure over time. Chemical stability is measured as the Assay of the material and/or the level of degradants. Stability is defined as having an Assay of at least about 90%, as determined by an HPLC assay method and/or having a minimum level of degradants, as determined by an HPLC Impurities and Degradation Determination (IDD) method over time. Preferably, a chemically stable composition as in the present inventor has an assay of at least 95%, more preferably at least 98%, as determined by an HPLC assay over time (storage time).
The stability of the examples described herein were tested using various analytical methods. One analytic method used is a determination using HPLC. The following HPLC method was used for the examples described below where HPLC was used as an analytic method.
as §1

Data set [4] can be described thus: Physical form of the active drug in the sample. Conditions: 55° C./75% RH Day 0.
Data set [5] in a line: Gain of weight (moisture uptake) on storage at 40° C./75% RH. An excerpt:
Texture is often highly correlated with hygroscopicity. Water/moisture absorption tends to reduce shine, for example. Water hygroscopicity can be determined by weight gain analyses.
Embodiments of the invention are preferably packaged with a desiccant, such as silica. The container preferably has a high moisture barrier, examples of which are known in the art. In a preferred packaged pharmaceutical composition of the present invention an amount of desiccant which will assure a weight gain due to moisture of not more than (NMT) 5%, preferably 0.5%, more preferably 0.05%, is preferred in order to maintain a good appearance and low water absorption for a maximum period of time. For example, the weight gain of the packaged material of the present invention after storage (i) at a temperature of about 55° C. and about 75% relative humidity for 5 days, and/or (ii) at a temperature of about 40° C. and about 75% relative humidity for 30 days, is less than about 15%, preferably less than about 10%, more preferably less than about 5% by weight.

Each structure is given as a SMILES string. Structures can show the parent of a compound that is named as a salt.

Consider `Cc1ccc(NC(=O)c2ccc(CN3CCN(C)CC3)cc2)cc1Nc1nccc(-c2cccnc2)n1` [Active drug (Amorphous), imatinib mesylate], for which the “hygroscopicity compared to crystalline material” value in data set [1] was “much more hygroscopic”. Further, in data set [2], the “Appearance, scale: 1 = good 5 = bad” value is 1 and the Appearance came to 5. In data set [3] (55° C./75% RH Day 0), the “Chemical: Assay” value was determined as 88.6 and the “Chemical: main deg” value was determined as 0.46. In data set [3] (55° C./75% RH Day 5), the “Chemical: Assay” value is reported as 97.8 and the “Chemical: main deg” value amounted to 0.44. Also, the Physical result in data set [4] was “amrph”.
Take `Cc1ccc(NC(=O)c2ccc(CN3CCN(C)CC3)cc2)cc1Nc1nccc(-c2cccnc2)n1` [Active drug (Crystalline 1), imatinib mesylate]: in data set [2], the “Appearance, scale: 1 = good 5 = bad” value is given as 1 and the Appearance was 1. Also, in data set [3] (55° C./75% RH Day 0), the “Chemical: Assay” value was 97.5 and the “Chemical: main deg” value is listed as 0.12. Also, in data set [3] (55° C./75% RH Day 5), the “Chemical: Assay” value came out at 98.8 and the “Chemical: main deg” value worked out at 0.12. Moreover, the Physical entry in data set [4] was “Alpha”.
With `Cc1ccc(NC(=O)c2ccc(CN3CCN(C)CC3)cc2)cc1Nc1nccc(-c2cccnc2)n1` [Active drug (Crystalline 2) Packed with silica] [imatinib mesylate], in data set [2], the “Appearance t = 7 days” value came to 1, the “Appearance t = 14 days” value is given as 1 and the “Appearance t = 28 days” value stood at 2. For the same compound, in data set [5], the “Wt gain T = 7 days” value stood at 12.42%, the “Wt gain T = 14 days” value amounted to 7.79% and the “Wt gain T = 28 days” value was 8.86%.
Turning to `Cc1ccc(NC(=O)c2ccc(CN3CCN(C)CC3)cc2)cc1Nc1nccc(-c2cccnc2)n1` [Active drug (Crystalline 2), imatinib mesylate], in data set [2], the “Appearance t = 7 days” value worked out at 1; the “Appearance t = 14 days” value is reported as 1-2; the “Appearance t = 28 days” value worked out at 3; the “Appearance, scale: 1 = good 5 = bad” value is 1. This compound displayed an Appearance in data set [2] of 4. Besides, in data set [3] (55° C./75% RH Day 0), the “Chemical: Assay” value is reported as 94.5 and the “Chemical: main deg” value turned out to be 0.11. In addition, in data set [3] (55° C./75% RH Day 5), the “Chemical: Assay” value was 98.8 and the “Chemical: main deg” value is 0.13. Besides, in data set [5], the “Wt gain T = 7 days” value is recorded as 21.49%, the “Wt gain T = 14 days” value was determined as 17.75% and the “Wt gain T = 28 days” value is recorded as 18.3%.
